Measured values: patent publication US7989466B2, “Methods to inhibit or augment an inflammatory response” (Cambridge Enterprise Limited, priority 1999, dated 2011)
pEC50: −log10 of the molar value. Positions of bridges follow the written chain, without caps; N, C: chain ends. Non-standard residues stand in square brackets, D forms with d. Residues, ends and D or L forms follow the SMILES beside them. No end group written: not given here.

What was measured:
∂-opioid receptors = biological target: T1, ∂-opioid receptors (Homo sapiens, UniProt P41143); test: Opioid receptor membrane binding (3H-Diprenorphine)
T1 construct: purchased RBI/Sigma 0-116
Method: For opioid receptor binding, membranes (0-116, RBI/Sigma) are diluted into binding buffer (75 mM Tris pH 7.4, 12.5 mM MgCl2 and 2 mM EDTA). For example, 10 μl of membranes are diluted in 500 μl of binding buffer (i.e., 1:50 dilution), which is aliquoted into labelled tubes. Cold competitor or test competitor is added (e.g. 5 μl of 100× stock solution; 5 μl of 100 μM naltrindole solution (N-115, RBI/Sigma in DMSO). Radioligand is then added (^3H-Diprenorphine, TRK 1060, Amersham, 250 μCi in 250 μl, 10.5 μM at 95 Ci/mmol). For competition studies, 0.5 nM is used. A 100× stock (i.e., […]) is made by diluting the commercial stock 1:210 in binding buffer, and 5 μl is added to every tube. Control tubes have radioligand but no membranes. The mixtures are vortexed, then spun very briefly. The mixtures are then incubated for 1 hour at 27° C. in a water bath. The mixture is filtered through GF/C filters over a vacuum. Each filter is pre-soaked in polyethyleneimine (0.3% in water; add 1 ml of 10% stock (P-261; RBI/Sigma) to 33 ml of MilliQ water). The tubes are washed with 2-3 ml of wash buffer (50 mM Tris pH 7.4) and the wash filtered. The filters are then rinsed with 3×5 ml of wash buffer, air dried, placed in a scintillation vial and 4.5 ml of scintillant added. The activity on the filter is then determined.

in vivo = conditions: female, Sprague-Dawley, rat, iv, 8.8 mg; for dose excreted: rats, 8.8 mg i.v.
[1] = Acute and 7-day repeat dose rat toxicity; assay type: in vivo; conditions: 1 or 10 mg (5-50 mg/kg) i.v.
From the text: That is, all animals remained clinically normal throughout.

[2] = tested on: fMLP induced THP-1 migration; test: THP-1 chemotaxis assay, fMLP as chemoattractant; assay type: cell-based; conditions: Homo sapiens, fMLP is not a chemokine, read-out: ED50, fMLP chemotaxis assay
Method: To determine whether an agent inhibits a chemokine-induced activity, such as macrophage recruitment, varying amounts of the agent are mixed with cells in the presence of a known chemoattractant. For example, a range of known concentrations of an agent, e.g., a chemokine peptide, is incubated with a defined number (e.g., 10^4-10^6) of human THP-1 monocyte cells in individual wells of the top compartment of a trans-well plate. Chemokine (such as MCP-1, MIP1α, IL8 or SDF-1α), at a concentration known to cause significant migration of THP-1 cells in the trans-well migration assay, is placed in the lower compartment (FIG. 1). Cells are then incubated at 37° C. for a period sufficient to allow migration, e.g., 4 hours. After incubation, the cells are gently removed from the top of the filter with a pipette, 20 μl of 20 mM EDTA in simple PBS is added into each top well, and incubated for 20 minutes at 4° C. The filter is carefully flushed with media using a gentle flow, and removed. A standard curve consisting of a two-fold dilution series of THP-1 cells (in 29 μl) is prepared to accurately quantify the number of cells that have migrated. […] Absorbance of converted dye is measured at a wavelength of 595 nm using an ELISA plate reader. The number of migrated cells in each well is then determined by interpolation of the standard curve (see also Imai et al., J. Biol. Chem., 272, 15036 (1997)). […]

CCR-2 = CCR-2 (Homo sapiens, UniProt P41597); test: Competitive binding to CCR-2 on CHO cells; conditions: read-out: ED50, Binding to CCR-2
Method: A competitive binding assay was used to determine the binding of A-I to chemokine receptors. These experiments were performed under ‘Horuk’ conditions (Hesselgesser et al., J. Biol. Chem., 273, 15687 (1998)), except that CHO cells expressing CCR-2 or CXCR-2 (AIDS Reagent Program, MRC London) were used. In each case, the specific binding of 0.25 nM labeled ligand to the cells was determined as the counts bound which were competable by 100 nM cold ligand. In each experiment, A-I was added from a stock solution in DMSO (with <0.1% DMSO final concentration in the assay).

[3] = tested on: chemokine receptors on the surface of Jurkat cells; test: Binding to chemokine receptors on Jurkat cells; parameters: species or system human
Method: For Scatchard analysis, the absorbance readings at 450 nm were calibrated, by reference to a standard curve in which known amounts of labeled peptide were coupled to derivatized sepharose beads (activated thiol-sepharose 4B; Sigma T8512) via the cysteine residue in each peptide. Briefly, known amounts (1 fmol to 1 pmol) of biotin-labeled peptide were incubated with 1 mg of activated thiol-sepharose beads in 100 μl of PBS at 37° C. for 1 hour. Free activated thiols were then blocked by addition of cysteine to a final concentration of 10 mM. The peptide-conjugated beads were then washed 5 times in PBS and treated exactly as for the cells described above. The absorbance at 450 nm obtained when a known amount of peptide was coupled to the beads was used to construct a standard curve which was used to convert the absorbance readings obtained with cells into number of molecules of labeled peptide which had bound.

T1 sequence (P41143 whole entry): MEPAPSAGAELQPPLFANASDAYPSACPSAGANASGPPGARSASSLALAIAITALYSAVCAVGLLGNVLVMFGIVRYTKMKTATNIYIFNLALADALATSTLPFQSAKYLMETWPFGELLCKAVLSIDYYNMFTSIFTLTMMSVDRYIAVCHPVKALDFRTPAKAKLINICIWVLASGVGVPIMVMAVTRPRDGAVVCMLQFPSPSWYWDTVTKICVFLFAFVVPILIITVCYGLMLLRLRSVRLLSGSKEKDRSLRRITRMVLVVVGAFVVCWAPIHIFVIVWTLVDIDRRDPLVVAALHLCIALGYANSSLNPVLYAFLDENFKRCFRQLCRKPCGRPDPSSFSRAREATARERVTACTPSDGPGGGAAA
Chain of CCR-2 (P41597 1-313 limits assumed): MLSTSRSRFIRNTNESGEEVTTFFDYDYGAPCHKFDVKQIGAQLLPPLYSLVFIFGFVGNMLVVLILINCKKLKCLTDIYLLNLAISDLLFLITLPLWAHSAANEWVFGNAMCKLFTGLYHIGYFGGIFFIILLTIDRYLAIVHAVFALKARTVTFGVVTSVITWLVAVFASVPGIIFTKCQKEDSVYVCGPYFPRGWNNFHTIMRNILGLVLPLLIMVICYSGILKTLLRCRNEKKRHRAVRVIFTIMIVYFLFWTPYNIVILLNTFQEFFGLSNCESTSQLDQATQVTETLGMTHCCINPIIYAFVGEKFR

**Q.** With `CC[C@@H](C)[C@H]1NC(=O)[C@@H](CCC(N)=O)NC(=O)[C@H](N)CSSC[C@H](C(N)=O)NC(=O)[C@@H](CC(C)C)NC(=O)[C@@H](CC(=O)O)NC(=O)[C@H]2CCCN2C(=O)[C@@H](CCCCN)NC(=O)[C@@H](CCC(N)=O)NC(=O)[C@@H](CCCCN)NC(=O)[C@@H](Cc2c[nH]c3ccccc23)NC1=O` (H-[dC][dQ][dI][dW][dK][dQ][dK][dP][dD][dL][dC]-NH2; disulfide 1-11; N-terminus assumed) as the compound, how does the pEC50 (∂-opioid receptors) read?
**A.** < 4.00

**Q.** What about the half-life (in vivo) of the same compound?
**A.** ~10 min

**Q.** And the dose excreted (in vivo; administered dose recovered in urine over 24 hours)?
**A.** ~70%

**Q.** What about the dose excreted (in vivo; dose excreted in urine over the first two hours) of the same compound?
**A.** > 55%

**Q.** And the “acute rat toxicity, clinical findings” value [1]?
**A.** no clinically detectable changes

**Q.** What does the source list for `C=CCCCCCCCCC(=O)N[C@H]1CCC(=O)NC1=O` [A-I (NR58.4), [3S]-3-(undec-10-enoylamino)piperidine-2,6-dione]?
**A.** pEC50 [2]: < 4.00; pEC50 (CCR-2): 8.30

**Q.** For “SYRRITSSKCPKEAV [peptide 2(1-15)[MCP-1]]”, which “B, binding sites on Jurkat cells” value [3] is on record?
**A.** 55,000 sites/cell

**Q.** And the “Ka, chemokine receptors on the surface of Jurkat cells” value [3]?
**A.** 250 nM
